Results published in the NIST ThermoML archive (doi:10.1016/j.fluid.2016.08.002).
± gives the expanded uncertainty stated by the source.

Assay: xn = mol fraction of the nth substance listed
Conditions: Gas, Vibrating tube method

S [hydrogen sulfide] + C
Conditions | mass density [kg/m3]
252.89 K, 10727 kPa, x2 = 0.8197 | 209.51 ± 2.2
252.89 K, 11063 kPa, x2 = 0.8197 | 217.25 ± 2.3
252.89 K, 11429 kPa, x2 = 0.8197 | 224.63 ± 2.4
252.9 K, 9948 kPa, x2 = 0.8197 | 181.75 ± 2
252.9 K, 10181 kPa, x2 = 0.8197 | 191.68 ± 2.1
252.9 K, 10440 kPa, x2 = 0.8197 | 200.58 ± 2.2
252.9 K, 11825 kPa, x2 = 0.8197 | 231.88 ± 2.4
252.9 K, 12251 kPa, x2 = 0.8197 | 239.02 ± 2.4
252.91 K, 9089 kPa, x2 = 0.8197 | 146 ± 1.7
252.91 K, 9296 kPa, x2 = 0.8197 | 153.9 ± 1.7
252.91 K, 9508 kPa, x2 = 0.8197 | 162.6 ± 1.8
252.91 K, 9727 kPa, x2 = 0.8197 | 172.12 ± 1.9
252.91 K, 12717 kPa, x2 = 0.8197 | 246.1 ± 2.5
252.92 K, 13223 kPa, x2 = 0.8197 | 253.09 ± 2.5
252.92 K, 13782 kPa, x2 = 0.8197 | 260.02 ± 2.6
252.94 K, 1010 kPa, x2 = 0.714 | 10.45 ± 0.6
252.94 K, 14392 kPa, x2 = 0.8197 | 266.89 ± 2.7
252.95 K, 1513 kPa, x2 = 0.714 | 16.11 ± 0.75
252.95 K, 15070 kPa, x2 = 0.8197 | 273.89 ± 2.8
252.96 K, 508 kPa, x2 = 0.714 | 5.18 ± 0.47
252.97 K, 15829 kPa, x2 = 0.8197 | 280.91 ± 2.9
252.98 K, 16314 kPa, x2 = 0.8197 | 285.18 ± 2.9
252.99 K, 16702 kPa, x2 = 0.8197 | 288.37 ± 2.9
253 K, 2008 kPa, x2 = 0.714 | 22.87 ± 0.87
253 K, 21010 kPa, x2 = 0.8197 | 317.91 ± 2.1
253 K, 21473 kPa, x2 = 0.8197 | 320.52 ± 2
253 K, 21973 kPa, x2 = 0.8197 | 323.2 ± 1.9
253 K, 22531 kPa, x2 = 0.8197 | 326.01 ± 1.9
253 K, 22822 kPa, x2 = 0.8197 | 327.46 ± 1.8
253 K, 23125 kPa, x2 = 0.8197 | 329.05 ± 1.8
253.01 K, 17275 kPa, x2 = 0.8197 | 293.02 ± 2.8
253.01 K, 20084 kPa, x2 = 0.8197 | 312.27 ± 2.2
253.01 K, 20574 kPa, x2 = 0.8197 | 315.19 ± 2.1
253.01 K, 23774 kPa, x2 = 0.8197 | 332.07 ± 1.7
253.01 K, 24145 kPa, x2 = 0.8197 | 333.77 ± 1.7
253.02 K, 2407 kPa, x2 = 0.714 | 28.16 ± 0.97
253.02 K, 17701 kPa, x2 = 0.8197 | 296.11 ± 2.7
253.02 K, 18537 kPa, x2 = 0.8197 | 302.29 ± 2.5
253.02 K, 19009 kPa, x2 = 0.8197 | 305.49 ± 2.4
253.02 K, 19564 kPa, x2 = 0.8197 | 309.06 ± 2.3
253.02 K, 24553 kPa, x2 = 0.8197 | 335.64 ± 1.6
253.02 K, 25031 kPa, x2 = 0.8197 | 337.77 ± 1.6
253.03 K, 225 kPa, x2 = 0.8197 | 2.1 ± 0.37
253.03 K, 18070 kPa, x2 = 0.8197 | 299 ± 2.6
253.03 K, 25582 kPa, x2 = 0.8197 | 340.15 ± 1.6
253.04 K, 26249 kPa, x2 = 0.8197 | 342.94 ± 1.5
253.05 K, 472 kPa, x2 = 0.8197 | 4.43 ± 0.44
253.05 K, 26980 kPa, x2 = 0.714 | 414.51 ± 1.8
253.06 K, 26459 kPa, x2 = 0.714 | 412.74 ± 1.9
253.06 K, 27510 kPa, x2 = 0.8197 | 348.27 ± 1.5
253.07 K, 1105 kPa, x2 = 0.8197 | 10.58 ± 0.62
253.07 K, 23585 kPa, x2 = 0.714 | 402.01 ± 2
253.07 K, 26760 kPa, x2 = 0.8197 | 345.19 ± 1.5
253.07 K, 27152 kPa, x2 = 0.8197 | 346.63 ± 1.5
253.07 K, 27494 kPa, x2 = 0.714 | 416.29 ± 1.8
253.07 K, 28062 kPa, x2 = 0.8197 | 350.41 ± 1.5
253.08 K, 1496 kPa, x2 = 0.8197 | 14.53 ± 0.72
253.08 K, 2006 kPa, x2 = 0.8197 | 20.39 ± 0.86
253.08 K, 28543 kPa, x2 = 0.8197 | 352.25 ± 1.5
253.08 K, 28966 kPa, x2 = 0.8197 | 353.85 ± 1.5
253.08 K, 29496 kPa, x2 = 0.8197 | 355.79 ± 1.5
253.08 K, 30039 kPa, x2 = 0.8197 | 357.73 ± 1.5
253.09 K, 23043 kPa, x2 = 0.714 | 399.91 ± 2.1
253.09 K, 24033 kPa, x2 = 0.714 | 403.73 ± 2
253.09 K, 25963 kPa, x2 = 0.714 | 410.91 ± 1.9
